Data taken from PubChem BioAssay (NCI).
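Following 48 hours of exposure in 96-well plates, responses at five concentrations were used to interpolate endpoints linearly. The concentration for 50% growth inhibition is given as GI50. TGI: concentration producing complete growth inhibition.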

Columns and labels:
Assay in all cases: NCI tumour cell line growth inhibition, 48 h
[1] = tested on: EKVX NSCLC
[2] = tested on: COLO 205 colon
[3] = tested on: LOX IMVI melanoma
[4] = tested on: BT-549 breast
[5] = tested on: HL-60(TB) leukemia
[6] = tested on: CAKI-1 renal
[7] = tested on: OVCAR-8 ovarian
[8] = tested on: OVCAR-5 ovarian
[9] = tested on: NCI/ADR-RES ovarian
[10] = tested on: HCC-2998 colon
[11] = tested on: DMS 273 small cell lung
[12] = tested on: KM20L2 colon
[13] = tested on: DMS 114 small cell lung
[14] = tested on: M19-MEL melanoma
[15] = tested on: XF 498 CNS
[16] = tested on: SNB-78 CNS
[17] = tested on: P388 leukemia
[18] = tested on: DLD-1 colon

SMILES: CC1(C)CCc2c(ccc(C(=O)/C=C/c3ccc(O)cc3)c2O)O1
- TGI [1]: 10.1 µM
- TGI [2]: 20.7 µM
- TGI [3]: 19.8 µM
- TGI [4]: 22.3 µM
- TGI [5]: 44.2 µM
- TGI [6]: 15.8 µM
- TGI [7]: 22 µM
- TGI [8]: 21.7 µM
- TGI [9]: 21.6 µM

SMILES: COC1OC2COC(c3ccccc3)OC2C(O)C1OC(=S)c1ccccc1 (stereo not given)
- TGI [1]: 51.7 µM
- TGI [2]: 33 µM
- TGI [3]: 21.4 µM
- TGI [4]: > 100 µM
- TGI [6]: 80.4 µM
- TGI [7]: > 100 µM
- TGI [8]: > 100 µM
- TGI [9]: > 100 µM

SMILES: C/C1=C\[C@H](C)C[C@H](C)OC(=O)[C@H](C)NC(=O)[C@@H](Cc2ccc(O)c(Br)c2)N(C)C(=O)[C@H](C)NC(=O)[C@@H](C)C1
- TGI [1]: > 4.7 µM
- TGI [2]: > 25 µM
- TGI [3]: 0.394 µM
- TGI [4]: 4.12 µM
- TGI [6]: 0.0274 µM
- TGI [7]: > 7.69 µM
- TGI [8]: > 25 µM
- TGI [9]: > 19.8 µM
- TGI [10]: > 25 µM

SMILES: O=C1N(Cc2ccccc2)C2CSCC2N1Cc1ccccc1 (stereo not given)
- TGI [1]: 79.3 µM
- TGI [2]: 32.8 µM
- TGI [3]: 93.1 µM
- TGI [4]: 53.5 µM
- TGI [6]: > 100 µM
- TGI [7]: > 100 µM
- TGI [8]: > 100 µM
- TGI [9]: 69.4 µM
- TGI [10]: 62.9 µM

SMILES: C[C@@H]1CC[C@H]2[C@H]1[C@H]1[C@@H](CC[C@]2(C)N=C=S)C1(C)C
- TGI [2]: 33.3 µM
- TGI [3]: > 100 µM
- TGI [4]: 39.1 µM
- TGI [5]: 54.3 µM
- TGI [6]: 92.4 µM
- TGI [7]: > 100 µM
- TGI [8]: > 100 µM
- TGI [9]: 43.9 µM
- TGI [10]: 83.4 µM

SMILES: COc1ccc(N2C(=O)C3c4[nH]c5cc(C)ccc5c4C4CCC(C(C)(C)C)CC4C3C2=O)cc1 (stereo not given)
- TGI [1]: > 10 µM
- TGI [2]: > 10 µM
- TGI [3]: > 10 µM
- TGI [5]: > 10 µM
- TGI [6]: > 10 µM
- TGI [7]: > 10 µM
- TGI [8]: > 10 µM
- TGI [9]: > 10 µM
- TGI [10]: > 10 µM

SMILES: C=CC1(C)CC(=O)C2(O)C(C)(O1)C(OC(C)=O)C(O)C1C(C)(C)CCC(O)C12C (stereo not given)
- TGI [11]: > 150 µM
- TGI [1]: > 150 µM
- TGI [2]: > 122 µM
- TGI [12]: > 150 µM
- GI50 [13]: > 71.6 µM
- TGI [13]: > 108 µM
- TGI [3]: > 150 µM
- TGI [14]: > 127 µM
- TGI [5]: > 137 µM
- GI50 [6]: > 55.2 µM
- TGI [6]: 58.8 µM
- TGI [15]: 142 µM
- TGI [7]: > 150 µM
- TGI [16]: > 150 µM
- TGI [8]: 45.5 µM
- TGI [17]: > 150 µM
- TGI [9]: > 130 µM
- TGI [10]: > 150 µM
- TGI [18]: > 150 µM

SMILES: OC(C#CCN1CCCC1)(c1ccccc1)c1ccccc1Cl (stereo not given)
- TGI [1]: > 100 µM
- TGI [2]: 25 µM
- TGI [3]: 33.4 µM
- TGI [4]: > 100 µM
- TGI [5]: 68.3 µM
- TGI [6]: 93.6 µM
- TGI [7]: > 100 µM
- TGI [8]: > 100 µM
- TGI [9]: 94.8 µM
- TGI [10]: 40.4 µM

SMILES: COc1ccc2oc(=N)c(C(=O)Nc3ccccc3)cc2c1
- TGI [1]: > 100 µM
- TGI [2]: > 100 µM
- TGI [3]: > 100 µM
- TGI [4]: 43.8 µM
- TGI [6]: > 100 µM
- TGI [7]: 46 µM
- TGI [8]: > 100 µM
- TGI [9]: 44 µM
